How the values were obtained:
human LXRα = target: T1, human LXRα (Homo sapiens, UniProt Q13133); assay: Full-length hLXRα/hRXRα LXREx3 TK-Luc reporter assay in transfected CV-1 cells; type: cell-based; settings: 20 μM, 40 hours
T1 construct: expressed in transfected cells; host or cells: CV-1 cells
T1 sequence (Q13133 1-447): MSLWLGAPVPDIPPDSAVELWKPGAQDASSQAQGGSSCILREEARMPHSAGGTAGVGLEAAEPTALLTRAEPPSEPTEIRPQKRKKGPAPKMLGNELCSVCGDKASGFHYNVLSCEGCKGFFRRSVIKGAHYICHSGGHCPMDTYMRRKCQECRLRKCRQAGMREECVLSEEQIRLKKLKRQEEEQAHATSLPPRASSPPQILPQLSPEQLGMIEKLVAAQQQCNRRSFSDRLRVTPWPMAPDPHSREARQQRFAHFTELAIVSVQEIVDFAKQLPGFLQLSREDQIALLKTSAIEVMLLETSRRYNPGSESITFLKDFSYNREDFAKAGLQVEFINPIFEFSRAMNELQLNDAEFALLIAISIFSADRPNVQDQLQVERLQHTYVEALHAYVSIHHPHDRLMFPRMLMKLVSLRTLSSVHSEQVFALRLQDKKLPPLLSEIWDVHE
T1 sequence (P19793 1-462 partner): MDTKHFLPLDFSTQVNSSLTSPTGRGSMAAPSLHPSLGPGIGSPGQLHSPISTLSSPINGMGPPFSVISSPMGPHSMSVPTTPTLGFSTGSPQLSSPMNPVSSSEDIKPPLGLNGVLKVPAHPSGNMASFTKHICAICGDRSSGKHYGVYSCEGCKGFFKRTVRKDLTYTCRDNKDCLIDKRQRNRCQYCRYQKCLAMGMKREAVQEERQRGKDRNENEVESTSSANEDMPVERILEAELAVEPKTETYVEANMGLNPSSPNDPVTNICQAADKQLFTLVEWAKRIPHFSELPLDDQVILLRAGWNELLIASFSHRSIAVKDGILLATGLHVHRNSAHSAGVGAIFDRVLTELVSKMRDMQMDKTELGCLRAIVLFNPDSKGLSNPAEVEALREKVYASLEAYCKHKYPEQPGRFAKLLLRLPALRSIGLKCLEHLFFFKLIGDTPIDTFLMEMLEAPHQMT
Method: CV-1 cells were grown in DMEM supplemented with 10% resin-charcoal stripped fetal bovine serum, 50 U/ml penicillin G and 50 μg/ml streptomycin sulfate at 37° C. in 5% CO2. Cells were plated to 50-80% confluence one day prior to transfection using phenol red-free DMEM-FBS. The cells were transfected by lipofection using N-[1-(2,3-dioleoyloxy)propyl]-N,N,N-ammonium methyl sulfate according to manufacturer's instructions (Boehringer Mannheim).
Genes encoding the following full-length proteins, which are suitable for use in the studies described herein, were cloned into pCMX: human RXRα (Gene Bank accession X52773) and human LXRα (GenBank accession U22662). The cells were transfected with CMX-βgal and luciferase constructs. The CMX-βGal construct contained the ligand binding domain of human RXR (hRXRα) and the ligand binding domain of human LXRα (hLXRα) as indicated in FIG. 1. The luciferase reporter construct (LXREx3 TK-Luc) contained the herpes virus thymidine kinase promoter (−105/+51) linked to three copies of the response element LXRE. After transfection, the cells were treated with 20 μM of a synthetic azole test compound or vehicle alone for 40 hours in phenol red-free DMEM-FBS.

[1] = target: T2, LXRα - coactivator SRC-1 interaction (Homo sapiens, UniProt Q13133); assay: Mammalian two-hybrid assay Gal-SRC-1 / VP-LXRα LBD / RXR LBD in CV-1 cells; type: cell-based
T2 construct: expression plasmids for Gal-SRC-1, VP-LXRα LBD or VP-LXRβ LBD, the RXR LBD; expressed in transfected cells; host or cells: CV-1 cells
Source text: (§1) One characteristic of nuclear receptor antagonists is their ability to displace coactivators bound to ligand-activated receptors. Thus, if Clotrimazole is an antagonist of LXR, it should inhibit the recruitment of coactivators. To test this, a mammalian two-hybrid assay was used. In this assay, CV-1 cells were transfected with Gal-SRC-1, VP-LXRα or VP-LXRβ, the RXR LBD and a reporter construct. In this type of assay, therefore, only a protein-protein interaction between the coactivator SRC-1 and LXR can result in transcriptional activity. The mammalian two-hybrid assay of FIG. 6 was performed by transfecting CV-1 cells with expression plasmids for Gal-SRC-1, VP-LXRα LBD or VP-LXRβ LBD, the RXR LBD and the USAGx4 Tkluc reporter. Cells were treated for 40 hours with Clotrimazole before luciferase and β-galactosidase activities were measured. Gal-SRC in FIG. 6 refers to a fusion between the Gal4 DNA binding domain and the three receptor interaction domains of SRC-1.

[2] = target: T3, LXRβ - coactivator SRC-1 interaction (Homo sapiens, UniProt P55055); assay: Mammalian two-hybrid assay Gal-SRC-1 / VP-LXRβ LBD / RXR LBD in CV-1 cells; type: cell-based; settings: 40 hours
T3 construct: expression plasmids for Gal-SRC-1, VP-LXRα LBD or VP-LXRβ LBD, the RXR LBD; expressed in transfected cells; host or cells: CV-1 cells
Source text: as §1

[3] = target: T4, LXRβ-RXR heterodimers / SRC-1 (Homo sapiens, UniProt P55055); assay: In vitro coactivator recruitment/displacement assay (gel), LXRβ, RXR, GST-SRC-1, 32P-LXRE probe; type: biochemical; settings: 10 μM
T4 construct: made in house; host or cells: receptors translated in vitro
Method: This was tested more directly using an in vitro coactivator recruitment/coactivator displacement assay. This assay has the advantage that it is performed with receptors bound to DNA and that it measures a direct interaction between receptor and coactivator with no interference by other proteins that may indirectly stabilize the complex. The assay was performed by mixing in vitro translated LXRα or LXRβ, RXR, 5 μg of purified GST-SRC-1 and a ^32P-labeled LXRE probe with or without 10 μM Clotrimazole according to previously described methods. Wang et al., Mol. Cell 3:543-553, 1999. The complexes then were separated through 5.5% polyacrylamide gels. The probe used represents a DR-4 element derived from the human SREBP-1c promoter (nt 337-361, accession no. AB046200).

RXR = RXR (Homo sapiens, UniProt P19793); assay: RXR activity (data not shown); type: cell-based
human CAR = human CAR (Homo sapiens, UniProt Q14994); settings: cited from earlier work
Chain of human CAR (Q14994 whole entry): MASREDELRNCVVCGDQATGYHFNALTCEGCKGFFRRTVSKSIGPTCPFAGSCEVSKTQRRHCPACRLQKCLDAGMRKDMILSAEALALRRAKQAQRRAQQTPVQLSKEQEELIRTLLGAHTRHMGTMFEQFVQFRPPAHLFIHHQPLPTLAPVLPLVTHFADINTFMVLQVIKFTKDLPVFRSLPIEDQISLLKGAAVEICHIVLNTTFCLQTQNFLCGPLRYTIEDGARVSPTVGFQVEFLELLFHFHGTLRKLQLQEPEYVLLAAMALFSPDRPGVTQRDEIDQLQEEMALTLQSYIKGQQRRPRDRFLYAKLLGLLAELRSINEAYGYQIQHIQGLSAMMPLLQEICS

T4 sequence (P55055 whole entry, one chain of several): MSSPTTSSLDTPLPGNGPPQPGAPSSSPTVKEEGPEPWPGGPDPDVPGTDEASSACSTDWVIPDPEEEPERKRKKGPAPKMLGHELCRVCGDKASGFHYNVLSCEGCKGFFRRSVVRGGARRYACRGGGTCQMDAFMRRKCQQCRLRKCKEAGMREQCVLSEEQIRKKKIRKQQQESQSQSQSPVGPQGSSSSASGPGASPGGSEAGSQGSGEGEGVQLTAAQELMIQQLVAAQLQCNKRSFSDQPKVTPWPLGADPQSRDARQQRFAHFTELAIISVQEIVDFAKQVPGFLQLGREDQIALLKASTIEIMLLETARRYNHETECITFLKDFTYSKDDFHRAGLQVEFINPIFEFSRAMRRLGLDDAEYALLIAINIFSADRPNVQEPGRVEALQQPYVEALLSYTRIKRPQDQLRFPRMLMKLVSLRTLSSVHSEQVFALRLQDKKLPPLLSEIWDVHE
T3 sequence (P55055 222-460 limits assumed, one chain of several): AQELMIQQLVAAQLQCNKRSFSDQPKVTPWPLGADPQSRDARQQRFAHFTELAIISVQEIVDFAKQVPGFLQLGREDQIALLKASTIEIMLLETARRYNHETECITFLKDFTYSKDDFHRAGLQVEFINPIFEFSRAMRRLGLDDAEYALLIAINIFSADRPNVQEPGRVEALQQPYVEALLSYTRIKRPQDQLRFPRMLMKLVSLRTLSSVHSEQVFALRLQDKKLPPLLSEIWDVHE

- interaction of LXRα with coactivator SRC-1 ([1]; 40 hours, two-hybrid): inhibited this interaction
- basal transcription ([1]; two-hybrid specificity control): did not inhibit basal transcription
- interaction of LXRβ with coactivator SRC-1 [2]: inhibited this interaction
- effect on LXRβ-RXR heterodimers (bound to LXRE probe) ([3]; lane 7): no effect
- interaction of LXRβ-RXR with SRC-1 ([3]; lane 8): prevented the interaction with SRC-1
- effect on RXR activity (RXR): no effect
Compound: Clc1ccccc1C(c1ccccc1)(c1ccccc1)n1ccnc1 [Clotrimazole]
- antagonism of constitutive activation mediated by LXR (hLXRα activity, LXREx3 TK-Luc) (human LXRα): antagonize the constitutive activation mediated by LXR
- activity on human CAR (human CAR): antagonizes

From patent US20050009837A1, “Modulators of lipid metabolism and methods of use” (City of Hope, priority 2003, published 2005)
